Data reported in the CheMixHub viscosity set.
Values joined by “and” are separate entries in the source; they are usually repeats but may differ in a detail not shown here. Equal entries are not always repeated.

Assay: xn = mol fraction of the nth substance listed

CCCCCCCCCCCCO + CCCCCCCO
viscosity [mPa·s], 101.8 kPa
Conditions	x2 = 0.1535	x2 = 0.4063	x2 = 0.6158	x2 = 0.7897	x2 = 0.937
298.15 K	14.93	11.89	9.619	7.876	6.209
308.15 K	10.25	8.286	6.789	5.642	4.516
318.15 K	7.217	5.917	4.913	4.132	3.362

CCCCCCCCCCCCO + CCCCCCO
viscosity [mPa·s], 101.8 kPa
Conditions	x2 = 0.1701	x2 = 0.4377	x2 = 0.6449	x2 = 0.8097	x2 = 0.9429
298.15 K	14.45	10.7	8.172	6.334	5.053
308.15 K	9.897	7.517	5.841	4.64	3.754
318.15 K	6.978	5.411	4.279	3.455	2.829

Cc1ccc(C)cc1 + CCCCCCO
viscosity, 101 kPa
Conditions	x2 = 0.0999	x2 = 0.1999	x2 = 0.2999	x2 = 0.4001	x2 = 0.4997	x2 = 0.6	x2 = 0.7	x2 = 0.8	x2 = 0.8999
303.15 K	0.616 mPa·s and 0.616 mPa·s	0.693 mPa·s and 0.693 mPa·s	0.799 mPa·s and 0.799 mPa·s	0.946 mPa·s and 0.946 mPa·s	1.148 mPa·s and 1.148 mPa·s	1.42 mPa·s and 1.42 mPa·s	1.801 mPa·s and 1.801 mPa·s	2.323 mPa·s and 2.323 mPa·s	3.004 mPa·s and 3.004 mPa·s
313.15 K	0.544 mPa·s and 0.544 mPa·s	0.605 mPa·s and 0.605 mPa·s	0.689 mPa·s and 0.689 mPa·s	0.802 mPa·s and 0.802 mPa·s	0.956 mPa·s and 0.956 mPa·s	1.156 mPa·s and 1.156 mPa·s	1.433 mPa·s and 1.433 mPa·s	1.806 mPa·s and 1.806 mPa·s	2.295 mPa·s and 2.295 mPa·s
323.15 K	0.485 mPa·s and 0.485 mPa·s	0.533 mPa·s and 0.533 mPa·s	0.6 mPa·s and 0.6 mPa·s	0.689 mPa·s and 0.689 mPa·s	0.807 mPa·s and 0.807 mPa·s	0.958 mPa·s and 0.958 mPa·s	1.161 mPa·s and 1.161 mPa·s	1.433 mPa·s and 1.433 mPa·s	1.788 mPa·s and 1.788 mPa·s

Cc1ccc(C)cc1 + CCCCCO
293.15 K, 101.33 kPa
Conditions	viscosity [mPa·s]
x2 = 0.1458	0.727
x2 = 0.2275	0.792
x2 = 0.2722	0.836
x2 = 0.3455	0.925
x2 = 0.4093	1.022
x2 = 0.4819	1.164
x2 = 0.5534	1.356
x2 = 0.6142	1.543
x2 = 0.7185	1.973
x2 = 0.7687	2.232
x2 = 0.8498	2.747
x2 = 0.9425	3.494

O=Cc1ccccc1 + CCCCCO
viscosity [mPa·s], 101.33 kPa
Conditions	x1 = 0.1001	x1 = 0.2014	x1 = 0.3028	x1 = 0.4151	x1 = 0.5074	x1 = 0.599	x1 = 0.7004	x1 = 0.8063	x1 = 0.9052
293.15 K	3.688	3.307	2.964	2.626	2.377	2.153	1.93	1.722	1.547
303.15 K	2.699	2.481	2.281	2.078	1.924	1.783	1.639	1.501	1.383
313.15 K	2.149	2.007	1.874	1.737	1.632	1.534	1.432	1.334	1.247
323.15 K	1.279	1.254	1.229	1.202	1.181	1.16	1.137	1.113	1.092

CCCCCCCCN + CCCCN(CCCC)CCCC
viscosity [mPa·s], 101 kPa
Conditions	x2 = 0.1005	x2 = 0.202	x2 = 0.3961	x2 = 0.5022	x2 = 0.5949	x2 = 0.7991	x2 = 0.8964
303.15 K	1.149	1.138	1.126	1.125	1.127	1.14	1.151
313.15 K	0.9719	0.9612	0.9507	0.9506	0.9532	0.97	0.9821

Cc1ccc(C)cc1 + CCCCO
Conditions	viscosity [mPa·s]
298.15 K, 101.33 kPa, x2 = 0.1504	0.636
298.15 K, 101.33 kPa, x2 = 0.2649	0.692
298.15 K, 101.33 kPa, x2 = 0.3971	0.797
298.15 K, 101.33 kPa, x2 = 0.5009	0.914
298.15 K, 101.33 kPa, x2 = 0.585	1.047
298.15 K, 101.33 kPa, x2 = 0.6932	1.275
298.15 K, 101.33 kPa, x2 = 0.7688	1.493
308.15 K, 101 kPa, x2 = 0.0495	0.551
308.15 K, 101 kPa, x2 = 0.1136	0.553
308.15 K, 101 kPa, x2 = 0.206	0.562
308.15 K, 101 kPa, x2 = 0.3224	0.592
308.15 K, 101 kPa, x2 = 0.4051	0.647
308.15 K, 101 kPa, x2 = 0.5098	0.724
308.15 K, 101 kPa, x2 = 0.6322	0.796
308.15 K, 101 kPa, x2 = 0.7241	0.937
308.15 K, 101 kPa, x2 = 0.8216	1.118
308.15 K, 101 kPa, x2 = 0.9035	1.327
308.15 K, 101 kPa, x2 = 0.9621	1.619

O=C(O)CCC(=O)O + CCCCO
101 kPa
Conditions	viscosity [mPa·s]
308.15 K, x1 = 0.0162	2.167
313.15 K, x1 = 0.0162	1.91
318.15 K, x1 = 0.0162	1.704
318.15 K, x1 = 0.017	1.704
318.15 K, x1 = 0.035	1.848
318.15 K, x1 = 0.0435	1.943
318.15 K, x1 = 0.047	1.943
323.15 K, x1 = 0.0162	1.51
323.15 K, x1 = 0.0435	1.726

O=C(O)c1ccccc1C(=O)O + CCCCO
viscosity [mPa·s]
Conditions	308.15 K	313.15 K	318.15 K	323.15 K
101 kPa, x1 = 0.021	–	–	1.806	1.604
101 kPa, x1 = 0.032	–	–	1.928	1.712
101 kPa, x1 = 0.039	–	–	1.985	1.78
101.33 kPa, x1 = 0.021	2.302	2.033	1.806	1.604
101.33 kPa, x1 = 0.032	–	2.18	1.928	1.712

O=Cc1ccccc1 + CCCCO
viscosity [mPa·s], 101.33 kPa
Conditions	x1 = 0.1021	x1 = 0.2004	x1 = 0.3089	x1 = 0.4057	x1 = 0.4992	x1 = 0.6014	x1 = 0.6982	x1 = 0.8044	x1 = 0.9027
293.15 K	2.662	2.48	2.294	2.14	2.001	1.86	1.735	1.608	1.498
303.15 K	2.143	2.025	1.903	1.799	1.705	1.608	1.521	1.43	1.352
313.15 K	1.62	1.563	1.503	1.451	1.403	1.352	1.305	1.256	1.212
323.15 K	1.088	1.086	1.084	1.082	1.081	1.079	1.077	1.075	1.074

Cc1ccc(C)cc1 + CCCO
viscosity [mPa·s], 100 kPa
Conditions	298.15 K	308.15 K
x2 = 0.0643	0.6146	0.5489
x2 = 0.1254	0.631	0.5619
x2 = 0.2254	0.6713	0.5956
x2 = 0.3547	0.7426	0.6389
x2 = 0.4703	0.8348	0.7071
x2 = 0.5743	0.9545	0.7925
x2 = 0.6683	1.058	0.9054
x2 = 0.7538	1.253	1.028
x2 = 0.8318	1.449	1.198
x2 = 0.9033	1.662	1.337
x2 = 0.9691	1.814	1.457

O=C(O)CCC(=O)O + CCCO
101 kPa
Conditions	viscosity [mPa·s]
308.15 K, x1 = 0.0284	1.872
313.15 K, x1 = 0.0284	1.657
313.15 K, x1 = 0.03	1.657
313.15 K, x1 = 0.037	1.72
313.15 K, x1 = 0.043	1.777
313.15 K, x1 = 0.0435	1.888
313.15 K, x1 = 0.048	1.888
318.15 K, x1 = 0.0284	1.492
318.15 K, x1 = 0.0435	1.635
323.15 K, x1 = 0.0284	1.326
323.15 K, x1 = 0.0435	1.462

O=C(O)c1ccccc1C(=O)O + CCCO
viscosity [mPa·s]
Conditions	308.15 K	313.15 K	318.15 K	323.15 K
101 kPa, x1 = 0.02	–	1.632	–	–
101 kPa, x1 = 0.027	–	1.732	–	–
101 kPa, x1 = 0.0369	–	1.887	–	–
101.33 kPa, x1 = 0.02	1.78	1.632	1.457	1.302
101.33 kPa, x1 = 0.0369	2.133	1.887	1.672	1.488

O=Cc1ccccc1 + CCCO
Conditions	viscosity [mPa·s]
308.15 K, 101 kPa, x2 = 0.8022	1.215

CCCCCCCCN + CCN(CC)CC
viscosity [mPa·s], 101.33 kPa
Conditions	x2 = 0.1056	x2 = 0.2038	x2 = 0.4151	x2 = 0.4978	x2 = 0.6055	x2 = 0.8063	x2 = 0.9007
303.15 K	1.021	0.9064	0.7044	0.6396	0.5641	0.4488	0.4031
313.15 K	0.8659	0.7719	0.6062	0.5533	0.4916	0.3975	0.3611

c1ccc(Nc2ccccc2)cc1 + CCN(CC)c1ccccc1
viscosity [mPa·s], 101 kPa
Conditions	x1 = 0.1169	x1 = 0.2161	x1 = 0.4308	x1 = 0.5654	x1 = 0.6688	x1 = 0.7545	x1 = 0.8327	x1 = 0.949
298.15 K	2.41	2.98	4.63	6.52	8.13	–	–	–
323.15 K	1.35	1.58	2.22	2.9	3.31	3.82	4.49	5.4

NCCO.O=CO + CCO
viscosity [mPa·s], 101 kPa
Conditions	x2 = 0.6996	x2 = 0.7776	x2 = 0.8461	x2 = 0.9031	x2 = 0.9294	x2 = 0.9544	x2 = 0.9779
293.15 K	12.34	7.77	5.01	3.318	2.76	2.28	1.86
298.15 K	10.54	6.762	4.44	3	2.502	2.064	1.71
303.15 K	9.078	5.97	3.984	2.73	2.268	1.902	1.584

O=Cc1ccccc1 + CCO
298.15 K, 101.33 kPa
Conditions	viscosity [mPa·s]
x1 = 0.05414	1.092
x1 = 0.08518	1.052
x1 = 0.1016	1.05
x1 = 0.1182	1.051
x1 = 0.1595	1.031
x1 = 0.1727	1.041
x1 = 0.3372	1.158
x1 = 0.6248	1.308
x1 = 0.8076	1.362

[Cl-].[Cl-].[Cl-].[Cl-].[Ge+4] + CCOC(C)=O
viscosity [mPa·s], 101 kPa
Conditions	x2 = 0.1475	x2 = 0.3162	x2 = 0.5235	x2 = 0.6703	x2 = 0.8062
293.15 K	0.576	0.535	0.5	0.481	0.469
303.15 K	0.531	0.486	0.457	0.431	0.416
313.15 K	0.481	0.449	0.406	0.39	0.382
